Measurements as given in patent US10377743B2, “Inhibitors of RAS and methods of use thereof” (Araxes Pharma LLC, priority 2016, dated 2019).

Molecular target: T1, KRAS G12C 1-169, his-tagged protein, GDP-loaded (Homo sapiens, UniProt P01116, G12C)
T1 construct: KRAS G12C 1-169, his-tagged protein, GDP-loaded
Assay: Biochemical assay: covalent binding (modification %) to KRAS G12C by mass spectrometry
Conditions: 2 hour incubation period
Experimental: Test compounds were prepared as 10 mM stock solutions in DMSO (Fisher cat# BP-231-100). KRAS G12C 1-169, his-tagged protein, GDP-loaded was diluted to 2 μM or 0.5 μM in buffer (20 mM Hepes, 150 mM NaCl, 1 mM MgCl2). Compounds were tested for activity as follows:
Compounds were diluted to 50× final test concentration in DMSO in 96-well storage plates. Compound stock solutions were vortexed before use and observed carefully for any sign of precipitation. Dilutions were as follow: • For 100 μM final compound concentration, compounds were diluted to 5000 μM (5 μL 10 mM compound stock+5 μL DMSO and mixed well by pipetting. • For 30 μM final compound concentration, compounds were diluted to 1500 μM (3 μL 10 mM compound stock+17 μL DMSO) and mixed well by pipetting. • For 10 μM final compound concentration, compounds were diluted to 500 μM (2 μL 10 mM compound stock+38 μL DMSO) and mixed well by pipetting. 49 μL of the stock protein solution was added to each well of a 96-well PCR plate (Fisher cat#1423027). 1 μl of the diluted 50× compounds were added to appropriate wells in the PCR plate using 12-channel pipettor. Reactions were mixed carefully and thoroughly by pipetting up/down with a 200 μL multi-channel pipettor. The plate was sealed well with aluminum plate seal, and stored in drawer at room temperature for 10 minutes, 30 minutes, 2 hours or 24 hours. 5 μL of 2% formic acid (Fisher cat# A117) in de-ionized H2O was then added to each well followed by mixing with a pipette. The plate was then resealed with aluminum seal and stored on dry ice until analyzed as described below.
The above described assays were analyzed by mass spectrometry according to one of the following two procedures:
The MS instrument is set to positive polarity, 2 GHz resolution, and low mass (1700) mode and allowed to equilibrate for 30 minutes. The instrument is then calibrated, switched to acquisition mode and the appropriate method loaded.
After another 30 minute equilibration time, a blank batch (i.e., buffer) is run to ensure equipment is operating properly. The samples are thawed at 37° C. for 10 minutes, briefly centrifuged, and transfer to the bench top. Wells A1 and H12 are spiked with 1 μL 500 μM internal standard peptide, and the plates centrifuged at 2000×g for 5 minutes. The method is then run and masses of each individual well recorded.
The masses (for which integration data is desired) for each well are pasted into the platemap and exported from the analysis. Masses for the internal standards are exported as well. The data at 50 ppm is extracted for the +19 charge state, and identity of well A1 is assigned using the internal standard spike and integrated. Peak data is exported as a TOF list and the above steps are repeated individually, for the +20, 21, 22, 23, 24, and 25 charge states.
The masses and peak intensities of KRAS G12C protein species were measured using a Dionex RSLCnano system (Thermo Scientific) connected to a Q Exactive Plus mass spectrometer (Thermo Scientific).
[…] of sample was each loaded onto a Aeris™ 3.6 μm WIDEPORE C4 200 Å, LC Column 50×2.1 mm column maintained at 40° C. at a flow rate of 600 μL/min with 20% Solvent A (0.1% formic acid in H2O) and 80% Solvent B (0.1% formic acid in acetonitrile). The liquid chromatography conditions were 20% solvent B for 1 minute, 20% to 60% solvent B for 1.5 minutes, 60% to 90% solvent for 0.5 minute, 90% solvent B for 0.2 minute, 90% to 20% solvent B for 0.2 minute, and then equilibrated for 1.6 minute before the following sample injection. The flow rate was maintained at 600 μL/min throughout the sample analysis.
The mass spectrometer was operated in profile mode at a resolution of 17500, 5 microscans, using 50 msec max injection time and an AGC target of 1×10^6, and a full mass range from 800-1850 m/z was recorded. The HCD trapping gas was optimized for maximum sensitivity for intact proteins. […]

[1] = 8 μM compound (compounds 21-92)
[2] = 10 μM compound (compounds 1-20)

Q: With C=CC(=O)N1CC(N2Cc3ccc(-c4c(C)ccc5[nH]ncc45)cc3CC2=O)C1 [Compound 38, 2-(1-acryloylazetidin-3-yl)-6-(5-methyl-1H-indazol-4-yl)-1,2-dihydroisoquinolin-3(4H)-one] as the compound, how does the Binding % [1] read?
A: ++ (++ indicates binding activity from 10 to 50%)

Q: With C=CC(=O)N1CC(N2Cc3ccc(N4CCc5ccccc54)cc3C2=O)C1 [Compound 57, 2-(1-acryloylazetidin-3-yl)-6-(indolin-1-yl)isoindolin-1-one] as the compound, how does the Binding % [1] read?
A: + (+ indicates binding activity up to 10%)

Q: How did the Binding % [1] turn out when C=CC(=O)N1CC(N2Cc3c(C#N)cc(-c4cc(O)cc5ccccc45)cc3C2=O)C1 [Compound 24, 2-(1-acryloylazetidin-3-yl)-6-(3-hydroxynaphthalen-1-yl)-1-oxoisoindoline-4-carbonitrile] was run?
A: +++ (+++ indicates binding activity greater than 50%)

Q: How did the Binding % [1] turn out when C=CC(=O)N1CC(N2Cc3ccc(-c4c(C)ccc5[nH]nc(N)c45)cc3C2=O)C1 [Compound 65, 2-(1-acryloylazetidin-3-yl)-6-(3-amino-5-methyl-1H-indazol-4-yl)isoindolin-1-one] was run?
A: +++ (+++ indicates binding activity greater than 50%)

Q: How did the Binding % [1] turn out when C=CC(=O)N1CC(N2Cc3ccc(NC4CCN(C(C)=O)C4)cc3C2=O)C1 (centres unmarked) [Compound 75, 6-((1-acetylpyrrolidin-3-yl)amino)-2-(1-acryloylazetidin-3-yl)isoindolin-1-one] was run?
A: + (+ indicates binding activity up to 10%)

Q: For C=CC(=O)N1CC(N2Cc3ccc(Nc4ccccc4)cc3C2=O)C1 [Compound 20, 2-(1-acryloylazetidin-3-yl)-6-(phenylamino)isoindolin-1-one], which Binding % [2] is on record?
A: + (+ indicates binding activity up to 10%)

Q: For C=CC(=O)N1CC(N2Cc3c(C(N)=O)cc(-c4c(C)ccc5[nH]ncc45)cc3C2=O)C1 [Compound 77, 2-(1-acryloylazetidin-3-yl)-6-(5-methyl-1H-indazol-4-yl)-1-oxoisoindoline-4-carboxamide], which Binding % [1] is on record?
A: + (+ indicates binding activity up to 10%)

Q: How did the Binding % [1] turn out when C=CC(=O)N1CC(N2Cc3ccc(-c4cc(O)ccc4Cl)cc3CC2=O)C1 [Compound 40, 2-(1-acryloylazetidin-3-yl)-6-(2-chloro-5-hydroxyphenyl)-1,2-dihydroisoquinolin-3(4H)-one] was run?
A: +++ (+++ indicates binding activity greater than 50%)

Q: Which Binding % [2] does the source give for C=CC(=O)N1CC(N2Cc3ccc(-c4cc(O)cc5ccccc45)cc3C2=O)C1 [Compound 2, 2-(1-acryloylazetidin-3-yl)-6-(3-hydroxynaphthalen-1-yl)isoindolin-1-one] here?
A: +++ (+++ indicates binding activity greater than 50%)

Q: With C=CC(=O)N1CC(N2Cc3ccc(C(=O)Nc4cn[nH]c4)cc3C2=O)C1 [Compound 84, 2-(1-acryloylazetidin-3-yl)-3-oxo-N-(1H-pyrazol-4-yl)isoindoline-5-carboxamide] as the compound, how does the Binding % [1] read?
A: + (+ indicates binding activity up to 10%)

Q: Which Binding % [1] does the source give for C=CC(=O)N1CCC(N2Cc3c(C(N)=O)cc(-c4c(O)cccc4F)cc3C2=O)C1 (centres unmarked) [Compound 91, 2-(1-acryloylpyrrolidin-3-yl)-6-(2-fluoro-6-hydroxyphenyl)-1-oxoisoindoline-4-carboxamide] here?
A: + (+ indicates binding activity up to 10%)

Q: C=CC(=O)N1CC(N2Cc3c(O)cc(-c4cc(O)cc5ccccc45)cc3C2=O)C1 [Compound 43, 2-(1-acryloylazetidin-3-yl)-4-hydroxy-6-(3-hydroxynaphthalen-1-yl)isoindolin-1-one] was tested. Which Binding % [1] did it give?
A: +++ (+++ indicates binding activity greater than 50%)

Q: For C=CC(=O)N1CC(N2Cc3ccc(-c4cccc(O)n4)cc3C2=O)C1 [Compound 54, 2-(1-acryloylazetidin-3-yl)-6-(6-hydroxypyridin-2-yl)isoindolin-1-one], which Binding % [1] is on record?
A: + (+ indicates binding activity up to 10%)

Q: How did the Binding % [1] turn out when C=CC(=O)N1CC(N2Cc3ccc(-c4cccc5[nH]ncc45)cc3C2=O)C1 [Compound 48, 2-(1-acryloylazetidin-3-yl)-6-(1H-indazol-4-yl)isoindolin-1-one] was run?
A: + (+ indicates binding activity up to 10%)

Q: How did the Binding % [1] turn out when C=CC(=O)N1CC(N2Cc3ccc(-c4cccc5[nH]cnc45)cc3C2=O)C1 [Compound 46, 2-(1-acryloylazetidin-3-yl)-6-(1H-benzo[d]imidazol-4-yl)isoindolin-1-one] was run?
A: + (+ indicates binding activity up to 10%)

Q: With C=CC(=O)N1CC(N2Cc3ccc(-c4cccc(C(N)=O)c4)cc3C2=O)C1 [Compound 50, 3-(2-(1-acryloylazetidin-3-yl)-3-oxoisoindolin-5-yl)benzamide] as the compound, how does the Binding % [1] read?
A: + (+ indicates binding activity up to 10%)

Q: With C=CC(=O)N1CC(N2Cc3ccc(-c4cc(O)cc(F)c4)cc3C2=O)C1 [Compound 33, 2-(1-acryloylazetidin-3-yl)-6-(3-fluoro-5-hydroxyphenyl)isoindolin-1-one] as the compound, how does the Binding % [1] read?
A: + (+ indicates binding activity up to 10%)

Q: C=CC(=O)N1CC(N2Cc3c(cc(-c4cc(O)ccc4Cl)cc3C(F)(F)F)C2=O)C1 [Compound 17, 2-(1-acryloylazetidin-3-yl)-6-(2-chloro-5-hydroxyphenyl)-4-(trifluoromethyl)isoindolin-1-one] was tested. Which Binding % [2] did it give?
A: ++ (++ indicates binding activity from 10 to 50%)

Q: For C=CC(=O)N1CC(N2Cc3cc(-c4cc(O)cc5ccccc45)ccc3C2=O)C1 [Compound 1, 2-(1-acryloylazetidin-3-yl)-5-(3-hydroxynaphthalen-1-yl)isoindolin-1-one], which Binding % [2] is on record?
A: ++ (++ indicates binding activity from 10 to 50%)

Q: How did the Binding % [1] turn out when C=CC(=O)N1CC(N2Cc3ccc(-c4c(O)ccc5ccccc45)cc3C2=O)C1 [Compound 73, 2-(1-acryloylazetidin-3-yl)-6-(2-hydroxynaphthalen-1-yl)isoindolin-1-one] was run?
A: ++ (++ indicates binding activity from 10 to 50%)

Q: With C=CC(=O)N1CC(N2Cc3ccc(-c4ccc(O)nc4)cc3C2=O)C1 [Compound 90, 2-(1-acryloylazetidin-3-yl)-6-(6-hydroxypyridin-3-yl)isoindolin-1-one] as the compound, how does the Binding % [1] read?
A: + (+ indicates binding activity up to 10%)

Q: How did the Binding % [1] turn out when C=CC(=O)N1CC(N2CCc3ccc(-c4cc(O)cc5ccccc45)cc3CC2)C1 [Compound 31, 1-(3-(7-(3-hydroxynaphthalen-1-yl)-4,5-dihydro-1H-benzo[d]azepin-3(2H)-yl)azetidin-1-yl)prop-2-en-1-one] was run?
A: + (+ indicates binding activity up to 10%)

Q: How did the Binding % [2] turn out when C=CC(=O)N1CC(N2Cc3c(C)cc(-c4cc(O)cc5ccccc45)cc3C2=O)C1 [Compound 14, 2-(1-acryloylazetidin-3-yl)-6-(3-hydroxynaphthalen-1-yl)-4-methylisoindolin-1-one] was run?
A: +++ (+++ indicates binding activity greater than 50%)

Q: With C=CC(=O)N1CC(N2Cc3ccc(-c4ccc(C(N)=O)cc4)cc3C2=O)C1 [Compound 81, 4-(2-(1-acryloylazetidin-3-yl)-3-oxoisoindolin-5-yl)benzamide] as the compound, how does the Binding % [1] read?
A: + (+ indicates binding activity up to 10%)

Q: For C=CC(=O)N1CC(N2Cc3cc(C#N)c(-c4cc(O)cc5ccccc45)cc3C2=O)C1 [Compound 64, 2-(1-acryloylazetidin-3-yl)-6-(3-hydroxynaphthalen-1-yl)-1-oxoisoindoline-5-carbonitrile], which Binding % [1] is on record?
A: +++ (+++ indicates binding activity greater than 50%)

Q: Which Binding % [2] does the source give for C=CC(=O)N1CC(N2Cc3ccc(-c4c(C)ccc5cn[nH]c45)cc3C2=O)C1 [Compound 8, 2-(1-acryloylazetidin-3-yl)-6-(6-methyl-1H-indazol-7-yl)isoindolin-1-one] here?
A: + (+ indicates binding activity up to 10%)
